This note sets out measurements from article PMC4865845, “A human genome-wide loss-of-function screen identifies effective chikungunya antiviral drugs” (Nature Communications, 2016).

The subject of the data set is CHIKV. In kind it is cell-based, chikungunya virus.

For the substance “Hs_SARS_2 (sense CTGATGAAACCATGTAATAAA; chemistry not given here)”, the Score_si1 was 2.9.
The same measure, in the same setting: next, “Hs_DLD_3 (CAGGTGGAATTGCCCACTTAT; chemistry not given here)”: 2.15; “Hs_NUDT1_5 (CCGCGAGGTGGACACGGTCTA; chemistry not given here)”: 2.08.
“Hs_GNG13_2 (sense CACGTGATTACAGTCTGTAAA; chemistry not given here)”: the Score_si2 was 1.42.
“Hs_INTS8_2 (sense CTGGGAATTAAAGACAATTTA; chemistry not given here)” came in with a Score_si2 of 2.65.
“Hs_FLJ20257_2 (sense CACCAAGTGGGTGCATCTGAA; chemistry not given here)” registered a Score_si1 of 2.26.
With “s14674 (sense GTATGAAGGAGGTATCTTT; chemistry not given here)”, the Score_si2 turned out to be 2.12.
“Hs_CHD8_1 (sense CAGGAGGTTATTGGAGACCAA; chemistry not given here)” came in with a Score_si2 of 1.61.
Same read-out and setting: the value for “s3626 (GAATTTGCGATGTACTTAA; chemistry not given here)” was 1.98.
Substance “Hs_CAMKK2_6 (sense CCGCAAGATCTTCTCTGGGAA; chemistry not given here)” returned a Score_si1 of 1.65.
In the case of “Hs_EIF2B2_2 (CAACATCATTGAGGCGATTAA; chemistry not given here)”, the Score_si1 amounted to 2.1.
As to “s3162 (CATTTCGACTGGATCATAT; chemistry not given here)”, the Score_si1 is 1.86.
Substance “s34679 (GGAAAGAAGGGAATGAGTT; chemistry not given here)” returned a Score_si2 of 1.1.
Consider “Hs_UBE2C_3 (GCCCTTGTATATTAAATAAAT; chemistry not given here) [reference compound]”, for which the Score_si4 is given as -0.41.
“Hs_PPIL2_3 (CACCAATTTGGACAAGTTCAA; chemistry not given here)”: the Score_si2 is 1.2.
For the substance “s33581 (GTACTTATATGAACGTATT; chemistry not given here)”, the Score_si4 was found to be 1.43.
Still for that read-out and setting: next, “s24923 (sense GGAAGTGAAGGAGTAAGTA; chemistry not given here) [reference compound]”: -0.27; “s10955 (sense GAGAAGAAGTATTACTTAT; chemistry not given here)”: 0.29.
In turn, “Hs_PMPCB_4 (TACATTTATAATAGGAGTCCA; chemistry not given here)” returned a Score_si4 of 0.83.
The substance “s28367 (sense CGACAAGAACGAAGACAGA; chemistry not given here) [reference compound]” showed a Score_si2 of -1.08.
In the case of “s26230 (sense CGGGACCAATTACCGCAAA; chemistry not given here)”, the Score_si4 is on record as -0.18.
In the case of “Hs_U2AF2_3 (TAAGACGAATTTGCTCATTAA; chemistry not given here)”, the Score_si1 is given as 2.74.
“Hs_ZZZ3_2 (TAGGAATTTACCTGAATATAA; chemistry not given here) [reference compound]” registered a Score_si2 of -2.58.
Substance “Hs_GPS1_3 (sense CAAGTGGGCGGTGTCCATTAA; chemistry not given here)” displayed a Score_si3 of 1.75.
As to “Hs_PPIL2_1 (CAGGGACAGCCTATTTATACA; chemistry not given here)”, the Score_si4 is listed as 0.92.
With “Hs_UBE2C_4 (CAGGACCATTCTGCTCTCCAT; chemistry not given here) [reference compound]”, the Score_si3 is reported as -0.75.
Still for that read-out and setting: the value for “Hs_PTPN4_3 (sense AGCACGTACCTTAGAACTCTA; chemistry not given here)” was 1.47.
With “Hs_CRSP7_2 (sense GAGAAATACCCTATTACCAAA; chemistry not given here) [reference compound]”, the Score_si1 was -1.9.
